This is an account of results in patent US20080249176A1, “Methods and Compositions for the Treatment of Myocardial Conditions” (priority 2004, published 2008).

The test system of one test is Na^+—K^+ pump. The test is described as follows: Whole-cell patch clamp measurement of Na+-K+ pump current (Ip) in isolated cardiac myocytes. Format: cell-based, rabbit. The text has this:
The whole-cell patch clamp technique (Hamill et al, 1981; Buhagier et al, 2004; Hansen et al, 2002) was used to examine the effect of β3 adrenoceptor stimulation on the Na^+—K^+ pump in isolated cardiac myocytes.
With the whole-cell patch clamp technique myocytes are suspended in a tissue bath mounted on the stage of an inverted microscope. A fine glass pipette is attached to the cell membrane and gentle suction applied to rupture the membrane patch directly under the tip of the glass pipette. This allows the intracellular compartment of the myocyte to be perfused with solution contained in the patch pipette. It also allows access of drugs and compounds to the intracellular compartment. Control of the composition of the extracellular solution in the tissue bath is achievable. The technique also allows control of membrane voltage and measurement of total membrane current.
The Na^+—K^+ pump's 3Na^+:2K^+ exchange ratio generates a current (Ip) that can be measured as the shift in holding current of the patch-clamped myocyte that is induced by pump blockade with 100 μM ouabain.
In the whole-cell configuration the bath was perfused with modified Tyrode's solution which contained (in mmol/L) NaCl 140; KCl 5.6; CaCl2 2.16; MgCl2 1; NaH2PO4 0.44; glucose 10 and Na-glutamate 9; N-2-hydroxyethyl piperazine-N′-2-[…] (HEPES) 10. The solution was titrated to a pH of 7.40±0.01 at 35° C. with NaOH.
For measurement of Ip the system was switched to a superfusate that usually was identical to the modified Tyrode's solution except that it was nominally Ca^2+-free and contained 0.2 mmol/L CdCl2 and 2 mmol/L BaCl2.
Wide-tipped patch pipettes (4-5 μm) were filled with solutions containing (in mmol/L) HEPES 5; MgATP 2; ethylene glycol-bis(β-aminoethyl ether)-N,N,N′,N′-tetraacetic acid (EGTA) 5; KCl 70 mmol/L. Osmotic balance was maintained with 80 mmol/L tetramethylammonium chloride (TMA-Cl). The solutions were titrated to a pH of 7.05±0.01 at 35° C. with 1 mmol/L TMA-OH. Ip was identified at a holding potential of −40 mV as the shift in holding current induced by Na^+—K^+ pump blockade with 100 μmol/L ouabain 10-15 minutes after the whole-cell configuration had been established. […] Details of patch pipette characteristics and equipment and criteria for defining Ip have been reported previously (Buhagiar et al, 1999).
The whole-cell patch clamp technique was similar to that described above except that extracellular Na^+ was eliminated (NaCl was replaced with N-methyl-D-glucamine (NMG.Cl)) to rule out any possible influx of Na^+ across the cell membrane.
Background: Patch clamp records ionic current or voltage across a cell membrane.

Test [1] deals with model of ischaemic cardiomyopathy with severe heart failure induced by repeated coronary microembolisation in sheep. The test is described as follows: Sheep heart failure model, left ventricular end systolic pressure-volume relationship (ESPVR). The class given is in vivo. Conditions: intravenous infusion, increasing doses, mean of 3 sheep, FIG. 6. The method, then:
To examine the effect of acute activation of the β3-receptor we used a model of ischaemic cardiomyopathy with severe heart failure induced by repeated coronary microembolisation in sheep (Huang, Y et al., Am J Physiol 286: H2141-50, 2004). The model is stable and reflects the human condition well (Huang et al, 2004).
BRL 37344 was administered by intravenous infusion over a period of 8 min, starting with the lowest dose of the protocol. After an additional 5 min pressure-volume relationships were determined as described (Huang et al., 2004). The procedure was then repeated in an identical fashion using a larger dose of BRL 37344. The left ventricular end systolic pressure-volume relationship (ESPVR) was used as an index of cardiac performance. ESPVR is relatively independent of confounding factors such as pre- and after-load and heart rate, and is widely accepted as a good index of left ventricular function.
Results are shown in FIG. 6, both before and after induction of heart failure. The independent variable on the abscissa indicates the dose in microgram BRL 37344 per kg weight of the sheep. Note the logarithmic increment in dose. The mean of ESPVR measured in 3 different sheep before and after induction of severe heart failure is shown on the ordinate. […]

In the next test the test system is PKA. Conditions: H-89 0.5 μM; cited from earlier work.

As to `O=C(Nc1ncnc2c1ncn2[C@@H]1O[C@@H]2COP(=O)(O)OC2C1O)c1ccccc1` (stereo in doubt) [6-Bnz-cAMP], the “Effect on Ip” value in the test with Na^+—K^+ pump (100 μM 6-Bnz-cAMP in patch pipette solution, NA-free control superfusate, FIG. 5) is “significant decrease in Ip”.

As for `C[C@H](Cc1ccc(OCC(=O)O)cc1)NC[C@H](O)c1cccc(Cl)c1` [BRL 37344], the “BRL 37344-induced stimulation of the Na,K-pump in the absence of extracellular Na^+” value in the test with Na^+—K^+ pump (10 nM BRL 37344, NaCl replaced by NMG.Cl, FIG. 3) is “persisted in the absence of extracellular Na^+”. Also, in the test on Na^+—K^+ pump (100 nM vs 10 nM BRL 37344, pipette Na 10 mM, FIG. 1), the “Na,K-pump activity at 100 nM in comparison with activity observed with 10 nM” value is reported as “apparent lower activity”. The “Na^+—K^+ pump current (Ip) in comparison with normal controls” value in the test on Na^+—K^+ pump (BRL 37344 1 nM, 10 nM and 100 nM, pipette Na 10 mM, FIG. 1) is “significantly stimulates”. The figures for the “Slope of linear regression of log dose vs. ESPVR” value in test [1] (normal sheep (before induction of heart failure)) and in test [1] (sheep after induction of severe heart failure) were “trend towards a negative slope” and “significantly positive”, respectively.

For `Cl.Cl.O=S(=O)(NCCNCC=Cc1ccc(Br)cc1)c1cccc2cnccc12` [H-89, N-[2-(p-Bromocinnamylamino)ethyl]-5-isoquinolinesulfonamide dihydrochloride], the “Effect on 6-Bnz-cAMP-induced decrease in Ip” value in the test on Na^+—K^+ pump (H-89 0.5 μM + 6-Bnz-cAMP 100 μM in pipette solution, FIG. 5) is reported as “reversed the 6-Bnz-cAMP-induced decrease in Ip”. Further, the “Effect on PKA-mediated Na^+—K^+ pump inhibition” value in the test with PKA was “abolishes PKA-mediated Na^+—K^+ pump inhibition”.

Turning to `NC[C@H](O)c1ccc(O)c(O)c1` [NA, noradrenaline], the “NA-induced increase in Ip with β1/β2 blockade” value in the test with Na^+—K^+ pump (10 nM NA + 1 μM nadolol, FIG. 4) is on record as “persisted in the presence of nadolol”. Further, the “NA-induced increase in Ip with PKA blockade” value in the test with Na^+—K^+ pump (10 nM NA, 0.5 μM H-89 in patch pipette solution, FIG. 4) is “persisted with PKA blockade”. Moreover, the “Effect on Ip” value in the test with Na^+—K^+ pump (10 nM NA, FIG. 4) is “induced an increase in Ip”.

Take `CC(C)(C)NCC(O)COc1cccc2c1CC(O)C(O)C2` (stereo not drawn) [nadolol]: the “Na,K-pump activity with nadolol in the presence of 100 nM BRL 37344 compared to 100 nM BRL 37344 alone” value in the test with Na^+—K^+ pump (nadolol 1 μM + 100 nM BRL 37344 in superfusate, FIG. 2) was “increased, although not quite significantly”.
